“And” between values parts separate entries of the source, which are not always exact repeats. Equal values may be shown once. One block for each compound: values may come before it.
Key:
[1] = test system: postmenopausal women; conditions: unpublished data; cited from earlier work
[2] = test system: alopecia in men; conditions: cited from earlier work
[3] = Toxicity and side effects of melatonin in humans (oral, topical); assay type: in vivo, human; conditions: topical application in a nanocolloid preparation and alcoholic solutions, over 60 subjects
Excerpt: Although the mechanisms of the action of melatonin are still not comprehensively clarified in detail, melatonin appears to control the adaptation of the organism to environmental stimuli, in particular light and temperature.

[4] = test system: hair follicles of the cashmere goat; conditions: cited from earlier work
[5] = test system: female patients having diffuse or androgenetic, non-epulotic alopecia; assay: Trichograms (anagenic, telogenic, dystrophic hair rates) in randomized placebo-controlled double-blind study; assay type: in vivo, human; conditions: for telogenic rate, frontal trichogram / anagenic rate, frontal trichogram / anagenic rate, occipital trichogram / telogenic rate, occipital trichogram: all patients
Description: The trial was carried out as a randomized, placebo-controlled double-blind study on 40 female patients having diffuse or androgenetic, non-epulotic alopecia, who, after clarification, declared themselves willing to participate in the investigation. […] The treatment period was 6 months. […] 40 women of 20 to 70 years of age with healthy skin and good general health and having androgenetic or diffuse alopecia were tested. Care was taken that none of the women were pregnant or lactating, there was no dermatological local therapy on the scalp and no epulotic alopecia was present. Furthermore, no hair-cosmetic measures were carried out during the study. […] For the investigation of the […] telogenic rates, trichograms were prepared. In this procedure, 5 days in each case after the last hair wash 30 to 50 hairs were obtained frontally approximately 2 cm from the forehead/hair boundary and laterally from the sagittal line in a standardized manner by epilation using a special […]. A 2nd epilation was taken occipitally 2 cm laterally of the protuberantia occipitalis. The trichograms were carried out before the beginning of the study, and after 3 and 6 months' treatment. The hair roots obtained were mounted on slides, analogously counted by means of a light microscope at 20-times magnification and the percentage ratios of the […], telogenic and dystrophic hairs were calculated. All the individual data from the trichogram investigations, the hair shaft measurements and the melatonin measurements were recorded in Microsoft Excel and mean values and standard deviations were calculated. The statistical analysis of the measured values at the various points in time in the two treatment groups was carried out by the SPSS statistics program.

[6] = test system: hair follicle of goats; conditions: goats treated over 14 days, vs untreated goats; cited from earlier work
[7] = test system: female patients having diffuse or androgenetic, non-epulotic alopecia; assay: Patient questionnaire (success of therapy, side effects); assay type: in vivo, human
Description: Undesirable pharmaceutical side effects were determined by means of a patient questionnaire. At the end of the study, an additional termination questionnaire was filled in by the patients, in which they could express their views on the success of the therapy, on the chronological occurrence of side effects and on the administration form of the preparation.

[8] = test system: female patients having diffuse or androgenetic, non-epulotic alopecia; assay: Hair shaft measurements (diameter, breaking force, breaking distance) in the same study; assay type: in vivo, human; conditions: for power of resistance of hair: frontal hair
Excerpt: The treatment period was 6 months. […] From the hair samples obtained for the trichogram, frontally and occipitally at least 10 hairs in each case were used for the hair shaft measurements. These samples were investigated before the beginning of the preparation application and after 3 and 6 months' treatment. For the measurement of the diameter and of the mechanical properties of the hair, 5 hairs from the frontal and occipital taking region of the trichograms were in each case used. For the measurement of the force which had to be used in order to break the hair, the hairs were first stretched, by means of a computer-controlled measuring and control unit at a constant force (Newton), to breaking point. In a manner analagous to the determination of the breaking force, it was possible to determine the stretching distance up to the breaking point by means of the measuring unit. The stretching distance was measured in mm.

[9] = drug group n=14, starting value
[10] = drug group, under topical treatment
[11] = drug group, end of 6-month study
[12] = patients treated with melatonin

Compound: CC(C)(C)NC(=O)[C@H]1CC[C@H]2[C@@H]3CC[C@H]4NC(=O)C=C[C@]4(C)[C@H]3CC[C@]12C [finasteride]
efficacy compared with placebo [1]: did not show any superior efficacy compared with placebo
cases with slight to marked improvement in the hair density [2]: 66%
cases with stopping of the hair loss [2]: 80%

harmful actions of the preparation on the physiological hair root (dystrophic hair rate) ([5]; dystrophic hair always in the normal range): no harmful actions
accumulation in the melatonin serum level (6 months' topical treatment): did not occur
melatonin plasma level versus physiological night level (not exceeded) [10]: ≤ 250 pg/ml
melatonin plasma level, individual peak values [10]: 180 pg/mL
Compound: COc1ccc2[nH]cc(CCNC(C)=O)c2c1 [melatonin, N-acetyl-5-methoxytryptamine]
local or systemic side effects [3]: no local or systemic side effects
melatonin concentration giving greater growth of the hair shafts than lower dose and control ([4]; 24 hour interval): ≥ 150 mg/mL
melatonin concentration with best growth rates and maximal total growth ([4]; after 120 hours): 300 ng/L
anagenic rate, occipital trichogram, androgenetic alopecia ([5]; drug group n=6, after treatment): 87.8%
telogenic rate, occipital trichogram, androgenetic alopecia ([5]; drug group n=6, month 3): 18.3%
telogenic rate, occipital trichogram, androgenetic alopecia ([5]; drug group n=6, month 6, p≦0.035 vs starting result): 10.8%
anagenic rate, occipital trichogram, androgenetic alopecia ([5]; drug group n=6, starting value): 73.6%
telogenic rate, occipital trichogram, androgenetic alopecia ([5]; drug group n=6, starting value): 26.5%
telogenic rate, occipital trichogram, diffuse alopecia ([5]; drug group n=14, after treatment): 13.2%
anagenic rate, occipital trichogram, diffuse alopecia ([5]; drug group n=14, after treatment, p=0,02 vs placebo for increase): 83.7%
anagenic rate, occipital trichogram, diffuse alopecia [5, 9]: 77.4%
telogenic rate, occipital trichogram, diffuse alopecia [5, 9]: 21.6%
telogenic rate, frontal trichogram ([5]; drug group, after 3 months): 16.8%
telogenic rate, frontal trichogram ([5]; drug group, after 6 months): 15.9%
anagenic rate, frontal trichogram ([5]; drug group, after treatment with 0.1% melatonin spray (time not given; 6-month study)): 82.6%
anagenic rate, occipital trichogram ([5]; drug group, month 3): 78.8%
telogenic rate, occipital trichogram ([5]; drug group, month 3): 18.1%
anagenic rate, occipital trichogram ([5]; drug group, month 6, p≦0.021 vs starting result): 85%
telogenic rate, occipital trichogram ([5]; drug group, month 6, p≦0.048 vs month 3, p≦0.005 over 6 months): 12.5%
anagenic rate, occipital trichogram ([5]; drug group, starting value): 76.3%
telogenic rate, frontal trichogram ([5]; drug group, starting value): 18.9%
telogenic rate, occipital trichogram ([5]; drug group, starting value (month 1)): 23.03% and 23%
anagenic rate, frontal trichogram ([5]; drug group, starting value before therapy): 80.4%
differences in frontal anagenic and telogenic rates after 3 and 6 months compared with starting values ([5]; drug group, frontal): not significant
effect on hair follicles (histology of skin biopsies) [6]: induction of hair growth by changeover of the hair follicle from the telogenic phase to the proanagenic phase
patients in whom the hair loss had stopped [7, 11]: 23%
patients in whom the hair loss had worsened [7, 11]: 8%
patients stating that the hair loss had improved [7, 11]: 69%
occurrence of tiredness compared with the placebo group ([7]; topical application to the scalp, 6 months): no increased occurrence of tiredness
patients with enlargement of the hair diameter, hair taken frontally ([8]; drug group, diagnosis androgenetic alopecia): 67%
power of resistance of hair ([8]; after 6 months' melatonin treatment): 0.61 N
power of resistance of hair ([8]; melatonin treatment, before treatment): 0.56 N
patients with improvements of occipital hair parameters, group having diffuse alopecia ([8]; occipital hair, diffuse alopecia, melatonin): 86%
patients with enlargement of the hair diameter, hair taken occipitally [8, 12]: 55%
patients with increase in the stretching force, hair taken occipitally [8, 12]: 70%

Source: patent publication US20020183377A1 (priority 1999, published 2002)
